Assay results reported in US10507228B2, “Methods and compositions related to KRAS inhibitors” (priority 2015, dated 2019).
Positions of bridges follow the written chain, without caps; N, C: chain ends. Non-standard residues stand in square brackets, D forms with d. Residues, ends and D or L forms follow the SMILES beside them. ξ: configuration not given here. ξK = NCCCCC(N)C(=O)O; ξA = CC(N)C(=O)O

Target: T1, mt G12D KRas binding to GST-RBD (Raf Ras binding domain) (Homo sapiens, UniProt P01116, G12D)
T1 construct: expressed in transfected cells; host or cells: NIH-3T3 cells (lysate)
Test: GST-RBD pulldown assay
Details: lysates of NIH-3T3 cells that ectopically express G12D KRas; compared to DMSO control; FIG. 1B
Description: Several stapled peptides such as FY-A-100-1 and 2 have been made (see FIG. 1A) that were designed based on the helical domain (78-92, LHDCLMKALKVRGLQ) (SEQ ID NO. 1) of Raf RBD (Ras binding domain). The synthesis was conducted on solid phase. In GST-RBD pulldown assays, FY-A-100-1 was potent at inhibiting the ability of GST-RBD to bind mt G12D KRas from lysates of NIH-3T3 cells that ectopically express G12D KRas (FIG. 1B). […] Furthermore, FY-A-90-1A, which is identical to FY-A-100-1 except for having a “CH2” shorter side chain of residue 82 that forms the staple, was not active.

Compound	inhibiting the ability of GST-RBD to bind mt G12D KRas
CSCC[C@@H]1NC(=O)[C@@H](NC(=O)[C@H](CS)NC(=O)[C@H](CC(=O)O)NC(=O)[C@H](Cc2cnc[nH]2)NC(=O)[C@@H](N)CC(C)C)CC(=O)NCCCC[C@@H](C(=O)NC(CCCCN)C(=O)N[C@H](C(=O)N[C@@H](CCCNC(=N)N)C(=O)NCC(=O)N[C@@H](CC(C)C)C(=O)N[C@@H](CCC(N)=O)C(N)=O)C(C)C)NC(=O)C(CCCCN)NC(=O)[C@H](CCCCN)NC1=O (stereo partly drawn) [FY-A-90-1A] (H-LHDCDMK[ξK]K[ξK]VRGLQ-NH2; lactam 5-9)	not active
CSCC[C@H](NC(=O)[C@H](CC(=O)O)NC(=O)[C@H](CS)NC(=O)[C@H](CC(=O)O)NC(=O)[C@H](Cc1cnc[nH]1)NC(=O)[C@@H](N)CC(C)C)C(=O)N[C@@H](CCCCN)C(=O)NC(CCCCN)C(=O)N[C@@H](CCCCN)C(=O)NC(CCCCN)C(=O)N[C@H](C(=O)N[C@@H](CCCNC(=N)N)C(=O)NCC(=O)N[C@@H](CC(C)C)C(=O)N[C@@H](CCC(N)=O)C(N)=O)C(C)C (stereo partly drawn) [FY-A-90-1B] (H-LHDCDMK[ξK]K[ξK]VRGLQ-NH2)	little activity
CSCC[C@@H]1NC(=O)[C@@H](NC(=O)[C@H](CS)NC(=O)[C@H](CC(=O)O)NC(=O)[C@H](Cc2cnc[nH]2)NC(=O)[C@@H](N)CC(C)C)CC(=O)NCCCC[C@@H](C(=O)NC(CCCCN)C(=O)N[C@H](C(=O)N[C@@H](CCCNC(=N)N)C(=O)NCC(=O)N[C@@H](CC(C)C)C(=O)N[C@@H](CCC(N)=O)C(N)=O)C(C)C)NC(=O)C(C)NC(=O)[C@H](CCCCN)NC1=O (stereo partly drawn) [FY-A-90-2A] (H-LHDCDMK[ξA]K[ξK]VRGLQ-NH2; lactam 5-9)	little activity
CSCC[C@H](NC(=O)[C@H](CC(=O)O)NC(=O)[C@H](CS)NC(=O)[C@H](CC(=O)O)NC(=O)[C@H](Cc1cnc[nH]1)NC(=O)[C@@H](N)CC(C)C)C(=O)N[C@@H](CCCCN)C(=O)NC(C)C(=O)N[C@@H](CCCCN)C(=O)NC(CCCCN)C(=O)N[C@H](C(=O)N[C@@H](CCCNC(=N)N)C(=O)NCC(=O)N[C@@H](CC(C)C)C(=O)N[C@@H](CCC(N)=O)C(N)=O)C(C)C (stereo partly drawn) [FY-A-90-2B] (H-LHDCDMK[ξA]K[ξK]VRGLQ-NH2)	little activity
CSCC[C@@H]1NC(=O)[C@@H](NC(=O)[C@H](CS)NC(=O)[C@H](CC(=O)O)NC(=O)[C@H](Cc2cnc[nH]2)NC(=O)[C@@H](N)CC(C)C)CCC(=O)NCCCC[C@@H](C(=O)N[C@@H](CCCCN)C(=O)N[C@H](C(=O)N[C@@H](CCCNC(=N)N)C(=O)NCC(=O)N[C@@H](CC(C)C)C(=O)N[C@@H](CCC(N)=O)C(N)=O)C(C)C)NC(=O)[C@H](CCCCN)NC(=O)[C@H](CCCCN)NC1=O [FY-A-100-1] (H-LHDCEMKKKKVRGLQ-NH2; lactam 5-9)	potent
CSCC[C@@H]1NC(=O)[C@@H](NC(=O)[C@H](CS)NC(=O)[C@H](CC(=O)O)NC(=O)[C@H](Cc2cnc[nH]2)NC(=O)[C@@H](N)CC(C)C)CCC(=O)NCCCC[C@@H](C(=O)N[C@@H](CCCCN)C(=O)N[C@H](C(=O)N[C@@H](CCCNC(=N)N)C(=O)NCC(=O)N[C@@H](CC(C)C)C(=O)N[C@@H](CCC(N)=O)C(N)=O)C(C)C)NC(=O)C(C)NC(=O)[C@H](CCCCN)NC1=O (stereo partly drawn) [FY-A-100-2] (H-LHDCEMK[ξA]KKVRGLQ-NH2; lactam 5-9)	less potent
